Measured values from patent publication US9618513B2, “Compositions and methods for detecting and treating colorectal cancer” (The Regents of the University of Michigan, priority 2014, dated 2017).

How the values were obtained:
Type in all cases: cell-based, human
[1] = tested on: primary colon cancer cell line SBCA; test: Proliferation of primary colon cancer cell line SBCA
Method: FIG. 21A-E A. Dot1L/H3K79me2 inhibitor EZP004777 (10 uM) had no effect on SUZ12 expression but reduce Sox2. B. EZP004777 had no effect on primary colon cancer cell line SBCA. C. EZH2 inhibitor DZNep reduced SBCA cell proliferation. D. SUZ12 knockdown reduced H3K27m3 level. E. Effect of I1-22 on tumor sphere assay was analyzed in shEZH2, shSUZ12 and Dznep treated cells.
(§1) Three primary colon cancer cell lines (SB, WR, JR) were established from fresh colon tissues. These primary colon cancer cells and DLD1 (ATCC) were studied. Colon cancer cells were treated with recombinant IL-22 (R&D) for different time points. The EZH2 inhibitor DZNep was added in conventional or sphere culture (see, e.g., Kryczek, I., et al., (2012) International journal of cancer 130, 29-39). Tumor cell sphere formation and gene expression were examined (see, e.g., Kryczek, I., et al., (2012) International journal of cancer 130, 29-39).

[2] = tested on: colon cancer cells; test: Colon cancer cell proliferation (Ki67 FACS, H3 thymidine incorporation, cell counting); details: H3 thymidine incorporation
Excerpt: A. GSEA analysis identifies proliferation pathways have positive correlation with IL-22. B. Cell proliferation maker Ki67 was detected by FACS. C. H^3 Thymidine Incorporation was used to detect the function of IL-22 in cell proliferation. D. Cell number was counted after stimulated with IL-22. E. Cells isolated from colon cancer tissue (Tumor cells and Leukocytes) were stimulated with a-CD3 and […] for 3 days, and supernatant mixed with or without anti-IL-22 antibody was co-cultured with DLD1 cells for 24 h to test cell proliferation. F. Cell cyclin-dependent kinase and kinase inhibitors were analyzed by Real-Time PCR.
A, C. Cell proliferation was analyzed using H^3 Thymidine Incorporation. B. The level of total H3K79m2 and H3K27me3 was measured by Western Blot. D. PcG proteins of EZH2, EED, SUZ12 was increased with IL-22(20 ng/ml) treatment. E. EZH2, SUZ12 and EED was detected by Western Blot after IL-22 treated for 24 h or 48 h. F. EZH2 inhibitor DZNep reduced cell proliferation. G.H. The efficiency of EZH2 and SUZ12 knock down was tested by Western Blot. I.J. Cell proliferation was analyzed using H^3 Thymidine Incorporation after knock down of EZH2 and SUZ12. K.L. Relative expression of cyclin-dependent kinase inhibitors (p16 and p18) in shEZH2, shSUZ12 and Dznep treated cells after IL-22 treatment. M. The level of H3K27me3 in the promoter of p16 and p18 was analyzed by ChIP assay.
A. The protein level of phosphorylated STAT3, STAT1 and STATS were activated by IL-22. B. The effect of STAT3 knock down. C. The effect of IL-22 on cell proliferation was analyzed using H^3 Thymidine Incorporation in Stat3 knock down cells. D. Knock down of STAT3 reduced the expression of EZH2 and SUZ12. E. Based on the ENCODE STAT3-ChIP-Seq data base, STAT3 occupancy on the promoter areas of SUZ12 and EED is shown. F. SUZ12/EED DNA was detected by ChIP assay using an antibody against STAT3, c-fos was used as a positive control.
as §1

[3] = tested on: CD4+ T cells; test: Transwell migration assay; details: CCL-20 5 ng/ml in lower chamber, 4 h
Method: (A, B) IL-22 is expressed by immune cells in colon cancer tissues. Different cell populations were sorted from colon cancer tissues and IL-22 expression was measured by real time PCR. (5-10 donors, P<0.05). (C) IL-22 is spontaneously released by different immune cell populations in colon cancer tissues. Different CD45^+ immune subsets (10^6/ml) were sorted from colon cancer and blood, and cultured for 12 hours. IL-22 was detected via ELISA. (n=5, *P<0.05). (D, E) IL-22 is expressed by activated CD4^+ T cells in colon cancer tissues. CD45^+ subsets (10^6/ml) were sorted from colon cancer and blood, and were activated with anti-CD3 and anti-CD28 for 2 days. IL-22 was detected with ELISA (D) or intracellular staining (E). (n=5, *P<0.05). (F, G) CCR6^+CD4^+ T cells express IL-22. CD4^+ T cells were sorted based on CCR6 expression and activated with anti-CD3 and anti-CD28 and antigen presenting cells. IL-22 mRNA was detected by real time PCR (F) and protein by ELISA (G). (5 different donors, P<0.05). […] IL-22 expression was quantified with real-time PCR in the migrated and non-migrated cells. Results are expressed as the mean relative expression (H). The phenotype of migrated cells, non-migrated cells and control (before migration) was analyzed by FACS (I). […] The mRNA of stem cell core genes was detected by real-time PCR after 6 hours (K) and ALDH activity was detected by FACS after 48 hours (L). […]

Row | Compound | SBCA cell proliferation [1] | colon cancer cell proliferation induced by IL-22 [2] | T cell migration [3]
1 | Nc1nccc2c1ncn2C1C=C(CO)C(O)C1O (stereo not drawn) [DZNep, reference compound] | reduced | significantly blocked | –
2 | CCL20: the ligand for CCR6; CCL-20 (5 ng/ml, R&D) | – | – | efficiently migrated
